Test results taken from patent US20060293351A1, “Promotion of wound healing” (priority 1999, published 2006).

Experiments:
collagen α1(I) gene = experiment: Collagen α1(I) gene expression at the stricture site (in situ hybridization, image analysis); format: in vivo, rats; details: after coagulation treatment, 3 biopsies for each type of treatment
Description: The experiments were performed as follows. First, urethral catherization was performed on tile rats with a 23 G Quik-Cath (Baxter, Ireland) sheath. A spinal needle was inserted into the sheath, and was used to apply a coagulation current at a level of 10 W to the outer end of the needle for 1 second at three locations, 8, 10 and 12 mm from the meatus, in order to produce urethral strictures. Halofuginone was given for 7 days starting at the day of stricture formation, either orally at concentrations of 1 ppm and 5 ppm in the diet, or by injection of 0.03% Halofuginone dissolved in 2% lignocaine directly into the urethra once a day. After 21 days, the rats were sacrificed and the sutures were reopened to determine the level of urethral stricture formation, at which time biopsies of the tissue were taken. For hybridization with the genetic probe, the sections were deparafinized in xylene, rehydrated through a graded series of ethanol solutions, rinsed in distilled water for 5 minutes and then incubated in 2×SSC at 70° C. for 30 minutes. The sections were then rinsed in distilled water and treated with pronase, 0.125 mg/ml in 50 mM Tris-HCl, 5 mM EDTA, pH 7.5, for 10 minutes. Alter digestion, the slides were rinsed with distilled water, post-fixed in 10% formalin in PBS and blocked in 0.2% glycine. […] Alkaline phosphatase activity was detected in the sections as previously described [Knopov. […]

[1] = test system: fibroblasts derived from rat urethra; experiment: cells; format: cell-based
Description: Urethral fibroblasts were obtained from three normal male rats, and were processed under sterile conditions. The urethra was cut into 1-2 mm pieces and rinsed several times in a solution containing 0.2 ml/10 ml penicillin/streptomycin and 50 micrograms/ml gentamycin. Each piece of urethra was placed in a 1 ml well of a 24 well plate (Greiner Labortchnik, Germany). Each well was filled with DMEM (Dulbecco's Modified Eagle's Medium), containing […] of D-glucose. 25% FCS (fetal calf serum), 0.1 ml/10 ml penicillin/streptomycin, 0.1 ml/10 ml glutamine. 50 micrograms/ml gentamycin and 2.5 micrograms/ml amphotericin B. The wells were incubated in an incubator containing 5% CO2 at 37° C. Half of the medium was replaced after 10 days. Two to three days later the cultures were trypsinized with trypsin-EDTA medium. The content of each pair of wells was combined, resuspended in DMEM and placed into one 250-ml flask containing 5 ml of medium. When the cell cultures reached confluency, they were transferred to new flasks with a 1:5 ratio of old to new medium. The concentration of FCS was then decreased to 10%.
For the evaluation of the synthesis of CDP and NCDP, cells were incubated for 24 hours with various concentrations of Halofuginone in 0.5 m glutamine-free DMEM containing 5% FCS, ascorbic acid (50 micrograms/ml), β-aminopropionitrile (50 micrograms/ml) and 2 micro-curies of [^3H]proline. At the end of the incubation period, the medium was decanted and incubated with or without collagenase for 18 hours, followed by TCA precipitation. The amount of radiolabeled collagen was estimated as the difference between total [^3H]proline containing proteins and protein remaining after collagenase digestion.

Structure (SMILES): O=C(CC1NCCC[C@H]1O)Cn1cnc2cc(Br)c(Cl)cc2c1=O (stereo partly shown) [Halofuginone]
- reduction in the expression of the collagen α1(I) gene (collagen α1(I) gene): 5.3 fold
- number of cells [1]: did not affect
- appearance of non-collagenase digestible proteins (NCDP) ([1]; 24 hours incubation): did not affect
- inhibition at 0.01 µM ([1]; Rattus norvegicus, Fibroblast, 10^−8 M Halofuginone, 24 hours, read-out: inhibition of the levels of collagenase-digestible proteins (CDP)): 40%
